Results published in US20250154193A1, “STEROID COMPOUND, AND PREPARATION METHOD THEREFOR AND APPLICATION THEREOF” (CHOLESGEN (SHANGHAI) CO., LTD., priority 2022, published 2025).

Test system: Ldlr−/− mice
Experiment: AMLN diet-induced fatty liver model: liver tissue section analysis
Assay type: in vivo
Details: 30 mg/kg/day, 8 weeks
Experimental: Hematoxylin-eosin staining: The extracted liver was fixed in 4% paraformaldehyde at 4° C., embedded in paraffin, sectioned using a paraffin microtome (Leica RM2235) with a section thickness of […], dewaxed, rehydrated, and stained with Hematoxylin-eosin staining kits ([…]. 6,765,001, 6,766,010, Thermo Scientific). The images were captured with an Olympus VS 120 glass microscope, and quantified using ImageJ software. Oil Red 0 staining: The liver was embedded in OCT embedding medium (Leica), sectioned to a thickness of 7 μm using a cryostat microtome (Leica CM1950), stained with Oil Red 0 (00625, Sigma). The images were captured with an Olympus VS 120 glass microscope, and quantified using ImageJ software. Sirius Red collagen staining: Liver paraffin sections were dewaxed, rehydrated, and stained with Sirius Red staining kit (ab150681, Abcam) according to the manufacturer's instructions. Immunofluorescence staining: The liver was embedded in OCT embedding medium (Leica) and sectioned to a thickness of 7 μm using a cryostat microtome (Leica CM1950). Cryostat sections were stained with anti-F4/80 rat monoclonal antibody (14-4801-85, Invitrogen, 1:100) and Alexa Fluor 488-conjugated goat anti-rat IgG secondary antibody (A-11006, Invitrogen, 1:500), and the nuclei were specifically stained with DAPI (Sigma) 30. After staining and sealing, the images were captured using a spinning disk confocal microscope (Nikon CSU-W1 SoRa), and quantified using ImageJ software. Polarized light imaging of cholesterol crystals: Cryostat sections were stained with F4/80 and DAPI. The images were captured using a spinning disk confocal microscope (Nikon CSU-W1 SoRa) equipped with a polarized light filter, and quantified using ImageJ software. Male C57BL/6J mice and male Ldlr^−/− mice (TOO1464, Jiangsu GemPharmatech Co., Ltd.) at 8 weeks of age were purchased, grouped, fed with different diets, and treated with different drugs. The mice were randomly divided into 4 groups with 8 to 9 mice in each group: One group consisted of C57BL/6J wild-type mice, which was the chow diet (CD) vehicle control group. The other three groups consisted of Ldlr^−/− knockout mice, including chow diet (CD) vehicle control group, AMLN diet (containing […], 22% fructose, and 2% cholesterol) vehicle control group, and AMLN diet combined with 25-hydroxylanosterol administration group (25-hydroxylano sterol was administered at a concentration of 30 mg/kg/day). The mice in four groups were intragastrically administered once a day, during which the changes in food intake and body weight of the mice in different treatment groups were counted. After 8 weeks, blood and liver samples were collected from the mice to analyze blood lipids, liver lipids, and liver damage phenotypes. Furthermore, we performed various staining or immunohistochemical procedures on liver tissue sections from the mice in each group to analyze the phenotypic changes in hepatic lipid accumulation and fatty liver. […] FIGS. 14 to 18 show the results of Oil Red O staining and quantification of liver sections of mice: 25-hydroxylanosterol reduced lipid droplets in the liver. FIGS. 19 to 23 show the results of Sirius Red staining and quantification of liver sections of mice: 25-hydroxylanosterol reduced fibrosis in the liver. FIGS. 24 to 29 show the results of F4/80 immunostaining and quantification of liver sections of mice as well as the results of imaging and quantification of polarized light imaging indicating cholesterol crystals: 25-hydroxylanosterol reduced the aggregation of Kupffer cells and formation of cholesterol crystals in the liver. In FIGS. 9 to 29, quantitative analysis was performed using ImageJ software, and data are represented as mean±standard deviation. P values were calculated using one-way ANOVA; * indicates P<0.05; ** indicates P<0.01; *** indicates P<0.001.

C[C@H](CCCC(C)(C)O)[C@H]1CC[C@@]2(C)C3=C(CC[C@]12C)[C@@]1(C)CC[C@H](O)C(C)(C)[C@@H]1CC3 [compound 68, (1R,3aR,5aR,7S,9aS,11aR)-1-[(2R)-6-hydroxy-6-methylheptan-2-yl]-3a,6,6,9a,11a-pentamethyl-2,3,3a,4,5,5a,6,7,8,9,9a,10,11,11a-tetradecahydro-1H-cyclopenta[1,2-a]phenanthren-7-ol]
significantly reduced: crown-like structure formed by Kupffer cells (F4/80 immunostaining) | fibrotic phenotype of collagen fiber formation in liver sections (Sirius Red) | number of cholesterol crystals in liver sections (polarized light imaging) | accumulation of lipid droplets of neutral lipids in the liver (Oil Red O staining) (vs control group) | macrovesicular lipid droplets and vesicular degenerated hepatocytes in the liver (HE staining) (vs control group) | NAFLD activity scores (HE staining of liver sections)
